Experimental data reported in ChEMBL document CHEMBL1133001, “Protection against oxidative damage by iron chelators: effect of lipophilic analogues and prodrugs of N,N'-bis(3,4,5-trimethoxybenzyl)ethylenediamine- N,N'-diacetic acid (OR10141)” (J Med Chem, 2000).

Assay: Compound was tested for inhibition of hydrogen peroxide toxicity against human skin fibroblasts
Assay type: functional

Structure (SMILES) | IC50 [µM]
CCCCCCCOc1c(OC)cc(CN(CCN(CC(=O)O)Cc2cc(OC)c(OCCCCCCC)c(OC)c2)CC(=O)O)cc1OC | 50
COc1cc(CN(CCN(CC(=O)OCOC(C)=O)Cc2cc(OC)c(OC)c(OC)c2)CC(=O)OCOC(C)=O)cc(OC)c1OC | 3
